In patent publication US20160287615A1, “NOVEL ENCAPSULATION OF FLUORESCENT, PHOTO-SENSITIVE, OR OXYGEN-SENSITIVE ACTIVE INGREDIENT FOR TOPICAL APPLICATION” (BioPharmX, Inc., priority 2015, published 2016):
Structures can show the parent of a compound that is named as a salt.

Key:
[1] = Fluorescence microscopy of compositions under UV fluorescent lamp illumination; assay type: physicochemical; conditions: 450 nm excitation wavelength
Excerpt: FIGS. 4a and 4b are images of the fluorescence given off by different compositions in response to illumination with a UV fluorescent lamp. The images of FIGS. 4a and 4b were captured using a digital camera connected to a microscope.
FIGS. 5a and 5b are images of the fluorescence given off by different compositions in response to illumination with a UV fluorescent lamp. The images of FIGS. 5a and 5b were captured using a digital camera connected to a microscope.
The composition includes minocycline contained in a plurality of Mg2CO3 tubular microparticles with a concentration of 1:100 of minocycline to Mg2CO3 tubular microparticles (10 milligrams of minocycline per gram of Mg2CO3 tubular microparticles).
The composition shown in FIG. 4b was made by dissolving minocycline HCl in methyl alcohol at a concentration of 10 mg/ml. A plurality of tubular microparticles comprising Mg2CO3 was added to the solution. Microscope slides were prepared with minocycline HCl (shown in FIG. 4a) and the prepared composition with a plurality of tubular microparticles described in this paragraph (shown in FIG. 4b).
Fluorescence can be an indicator of photo-initiated degradation of some antibiotics, including minocycline.

[2] = 10 h
Protocol: Additional data was collected with a high performance liquid chromatography (HPLC) machine for two samples. The first sample was minocycline HCl and the second sample comprised a plurality of microparticles that contained minocycline HCl. […] Following exposure of both samples to ultraviolet illumination for 10 hours, an HPLC machine was used to assess the level of degradation of the minocycline active ingredient in both samples.

## CN(C)c1ccc(O)c2c1C[C@H]1C[C@H]3[C@H](N(C)C)C(O)=C(C(N)=O)C(=O)[C@@]3(O)C(O)=C1C2=O [minocycline HCl]
[1]
  fluorescence emission wavelength: approximately 670 nm
[1]; UV fluorescent lamp illumination, microscope magnification at 10 times
  fluorescence observed by fluorescence microscopy: showed fluorescence emission
[2]
  degradation of the minocycline active ingredient: 4.3%
